Measured values reported in US20060276400A1, “Modulation of cholesteryl ester transfer protein (CETP) activity” (priority 2005, published 2006).

Legend:
serum CETP activity = experiment: Serum CETP activity (fluorescent cholesteryl ester transfer assay) in immunized human CETP transgenic mice; conditions: in vivo
[1] = system: serum HDL-cholesterol (HDLc); design: species or system human CETP transgenic mice; conditions: in vivo
human CETP = experiment: ELISA anti-huCETP antibody titers in sera of immunized human CETP transgenic mice; conditions: in vivo; for average anti-huCETP titer: sc
[2] = system: endogenous serum CETP activity; experiment: Change in endogenous serum CETP activity in rabbits immunized with full-length human CETP; conditions: week 12 post-injection vs week -1 pre-injection, 0.2 mg huCETP in CFA, boosters in IFA; for increase in CETP activity following vaccination: Rabbit #1

Molecule	effect on serum CETP activity (in words) (serum CETP activity)	change in serum HDLc levels in contrast to control group (in words) [1]	average anti-huCETP titer (human CETP) [OD]	anti-huCETP titer lower than those of the CETi-1 and CETi-2 groups (human CETP)	increase in CETP activity following vaccination [2]	increase in CETP activity following vaccination ([2]; listed as whole human CETP) [%]	decrease in CETP activity following vaccination ([2]; Rabbit #11, listed as whole human CETP) [%]
CQYIKANSKFIGITEFGFPEHLLVDFLQSLS [CETi-1, reference compound]	appeared to elevate CETP activity	reduction	~0.750				
CSKGTSHEAGIVCRITKPALLQYIKANSKFIGITE [CETi-2]	no effect on average	reduction	~0.750				
SKGTSHEAGIVCRITKPALLQYIKANSKFIGITE [CETi-2.1]				approx. 30%			
human CETP: full-length human CETP (SEQ ID NO:7) purified from conditioned media of a huCETP transformed CHO cell line (protein, Human; PEPTIDE (1)..(476) Amino aid sequence of full-length mature human CETP protein) CSKGTSHEAGIVCRITKPALLVLNHETAKVIQTAFQRASYPDITGEKAMMLLGQVKYGLHNIQISHLSIASSQVELVEAKSIDVSIQNVSVVFKGTLKYGYTTAWWLGIDQSIDFEIDSAIDLQINTQLTCDSGRVRTDAPDCYLSFHKLLLHLQGEREPGWIKQLFTNFISFTLKLVLKGQICKEINVISNIMADFVQTRAASILSDGDIGVDISLTGDPVITASYLESHHKGHFIYKNVSEDLPLPTFSPTLLGDSRMLYFWFSERVFHSLAKVAFQDGRLMLSLMGDEFKAVLETWGFNTNQEIFQEVVGGFPSQAQVTVHCLKMPKISCQNKGVVVNSSVMVKFLFPRPDQQHSVAYTFEEDIVTTVQASYSKKKLFLSLLDFQITPKTVSNLTESSSESIQSFLQSMITAVGIPEVMSRLEVVFTALMNSKGVSLFDIINPEIITRDGFLLLQMDFGFPEHLLVDFLQSLS					+85%	85	77
